Experimental data reported in ChEMBL document CHEMBL3885861, “Open TG-GATES”.

Organism: Rattus norvegicus
Assay: Open TG-GATES - Regimen: Single
Assay type: toxicity, organism-based, Sprague-Dawley
Design: regimen Single, gender Male, age 6 weeks
Conditions: in vivo, po, 15 mg/kg, route gavage, dose level Low; for APTT / Bas / Eos / Fbg / Hb / Ht / Lym / MCH / MCHC / MCV / Mono / Neu / PT / Plat / RBC / Ret / WBC: tissue Blood; for KIDNEY_L / KIDNEY_R / KIDNEY_TOTAL: tissue Kidney; for LIVER: tissue Liver; for A/G / ALP / ALT / AST / BUN / CRE / Ca / Cl / DBIL / GLC / IP / K / LDH / Na / PL / RALB / TBIL / TC / TG / TP / gamma-GTP: tissue Plasma

`Nc1nc(N)c2nc(-c3ccccc3)c(N)nc2n1` was tested, and the TERMINAL_BW (3 h) was 213.1 g, the APTT (3 h) was 16.6 s and the Bas (3 h) was 0%. It also gave an Eos (3 h) of 1%, a Fbg (3 h) of 307 mg/dL and a Hb (3 h) of 14.2 g/dL. For the same compound, the Ht (3 h) was 42.9%, the Lym (3 h) was 78.2% and the MCH (3 h) was 21.5 pg. The MCHC (3 h) was 33%, the MCV (3 h) was 65.1 fL and the Mono (3 h) was 3.4%. It also gave a Neu (3 h) of 17%, a PT (3 h) of 14.3 s and a Plat (3 h) of 129.9 x10_4/uL. The RBC (3 h) was 659.2 x10_4/ul, the Ret (3 h) was 7.7% and the WBC (3 h) was 86.3 x10_2/uL. It also gave a KIDNEY_L (3 h) of 1 g, a KIDNEY_R (3 h) of 1 g and a KIDNEY_TOTAL (3 h) of 2 g. The LIVER (3 h) was 9.6 g, the A/G (3 h) was 0.9 and the ALP (3 h) was 1340.6 IU/L. It also gave an ALT (3 h) of 39.8 IU/L, an AST (3 h) of 73.2 IU/L and a BUN (3 h) of 10.4 mg/dL. For the same compound, the CRE (3 h) was 0.2 mg/dL, the Ca (3 h) was 11 mg/dL and the Cl (3 h) was 105.2 meq/L. It also gave a DBIL (3 h) of 0.008 mg/dL, a GLC (3 h) of 170.2 mg/dL and an IP (3 h) of 8.6 mg/dL. The K (3 h) was 4.6 meq/L, the LDH (3 h) was 56.2 IU/L and the Na (3 h) was 141.2 meq/L. It also gave a PL (3 h) of 144 mg/dL, an RALB (3 h) of 2.7 g/dL and a TBIL (3 h) of 0.05 mg/dL. It also gave a TC (3 h) of 76.2 mg/dL, a TG (3 h) of 81.4 mg/dL and a TP (3 h) of 5.6 g/dL. It also gave a gamma-GTP (3 h) of 1.2 IU/L, a TERMINAL_BW (6 h) of 211.9 g and an APTT (6 h) of 16.3 s. For the same compound, the Bas (6 h) was 0.4%, the Eos (6 h) was 1% and the Fbg (6 h) was 292.4 mg/dL. For the same compound, the Hb (6 h) was 13.8 g/dL, the Ht (6 h) was 41.6% and the Lym (6 h) was 76%. For the same compound, the MCH (6 h) was 21.2 pg, the MCHC (6 h) was 33.2% and the MCV (6 h) was 63.9 fL. It also gave a Mono (6 h) of 2.6%, a Neu (6 h) of 19.6% and a PT (6 h) of 14.3 s. For the same compound, the Plat (6 h) was 117.9 x10_4/uL, the RBC (6 h) was 651.8 x10_4/ul and the Ret (6 h) was 7.8%. It also gave a WBC (6 h) of 88.3 x10_2/uL, a KIDNEY_L (6 h) of 1 g and a KIDNEY_R (6 h) of 1 g. The KIDNEY_TOTAL (6 h) was 1.9 g, the LIVER (6 h) was 9 g and the A/G (6 h) was 1. For the same compound, the ALP (6 h) was 1353.4 IU/L, the ALT (6 h) was 38.2 IU/L and the AST (6 h) was 72.8 IU/L. For the same compound, the BUN (6 h) was 9.2 mg/dL, the CRE (6 h) was 0.2 mg/dL and the Ca (6 h) was 10.8 mg/dL. It also gave a Cl (6 h) of 105.6 meq/L, a DBIL (6 h) of 0.008 mg/dL and a GLC (6 h) of 167.8 mg/dL. It also gave an IP (6 h) of 9.9 mg/dL, a K (6 h) of 4.4 meq/L and an LDH (6 h) of 56.4 IU/L. For the same compound, the Na (6 h) was 142.6 meq/L, the PL (6 h) was 138.4 mg/dL and the RALB (6 h) was 2.6 g/dL. The TBIL (6 h) was 0.062 mg/dL, the TC (6 h) was 77 mg/dL and the TG (6 h) was 49.8 mg/dL. For the same compound, the TP (6 h) was 5.4 g/dL, the gamma-GTP (6 h) was 1.2 IU/L and the TERMINAL_BW (9 h) was 206.1 g. For the same compound, the APTT (9 h) was 16.7 s, the Bas (9 h) was 0% and the Eos (9 h) was 0.8%. The Fbg (9 h) was 322.4 mg/dL, the Hb (9 h) was 14 g/dL and the Ht (9 h) was 42.2%. For the same compound, the Lym (9 h) was 77.6%, the MCH (9 h) was 21.2 pg and the MCHC (9 h) was 33.2%. It also gave an MCV (9 h) of 64 fL, a Mono (9 h) of 2.4% and a Neu (9 h) of 18.2%. For the same compound, the PT (9 h) was 13.9 s, the Plat (9 h) was 128.2 x10_4/uL and the RBC (9 h) was 659.6 x10_4/ul. It also gave a Ret (9 h) of 7.5%, a WBC (9 h) of 82.6 x10_2/uL and a KIDNEY_L (9 h) of 1 g. For the same compound, the KIDNEY_R (9 h) was 1 g, the KIDNEY_TOTAL (9 h) was 2 g and the LIVER (9 h) was 8.3 g. It also gave an A/G (9 h) of 0.9, an ALP (9 h) of 1426 IU/L and an ALT (9 h) of 39 IU/L. It also gave an AST (9 h) of 67.4 IU/L, a BUN (9 h) of 9.2 mg/dL and a CRE (9 h) of 0.2 mg/dL. The Ca (9 h) was 10.8 mg/dL, the Cl (9 h) was 106.2 meq/L and the DBIL (9 h) was 0.006 mg/dL. It also gave a GLC (9 h) of 163 mg/dL, an IP (9 h) of 9.9 mg/dL and a K (9 h) of 4.1 meq/L. For the same compound, the LDH (9 h) was 47.8 IU/L, the Na (9 h) was 143 meq/L and the PL (9 h) was 144 mg/dL. The RALB (9 h) was 2.7 g/dL, the TBIL (9 h) was 0.056 mg/dL and the TC (9 h) was 84.8 mg/dL. It also gave a TG (9 h) of 41.4 mg/dL, a TP (9 h) of 5.5 g/dL and a gamma-GTP (9 h) of 1.2 IU/L. For the same compound, the TERMINAL_BW (24 h) was 226.6 g, the APTT (24 h) was 19 s and the Bas (24 h) was 0%. The Eos (24 h) was 1%, the Fbg (24 h) was 289.6 mg/dL and the Hb (24 h) was 14 g/dL. It also gave a Ht (24 h) of 41.7%, a Lym (24 h) of 83.6% and an MCH (24 h) of 21.1 pg. For the same compound, the MCHC (24 h) was 33.6%, the MCV (24 h) was 62.7 fL and the Mono (24 h) was 1.6%. It also gave a Neu (24 h) of 12.8%, a PT (24 h) of 14 s and a Plat (24 h) of 121.6 x10_4/uL. For the same compound, the RBC (24 h) was 664.8 x10_4/ul, the Ret (24 h) was 6.2% and the WBC (24 h) was 84.7 x10_2/uL. The KIDNEY_L (24 h) was 1 g, the KIDNEY_R (24 h) was 1 g and the KIDNEY_TOTAL (24 h) was 2 g. For the same compound, the LIVER (24 h) was 10.5 g, the A/G (24 h) was 0.9 and the ALP (24 h) was 1713.2 IU/L. It also gave an ALT (24 h) of 44.8 IU/L, an AST (24 h) of 67.4 IU/L and a BUN (24 h) of 15.2 mg/dL. For the same compound, the CRE (24 h) was 0.2 mg/dL, the Ca (24 h) was 11 mg/dL and the Cl (24 h) was 105.4 meq/L. For the same compound, the DBIL (24 h) was 0.012 mg/dL, the GLC (24 h) was 183.2 mg/dL and the IP (24 h) was 8.3 mg/dL. For the same compound, the K (24 h) was 4.1 meq/L, the LDH (24 h) was 58.4 IU/L and the Na (24 h) was 143.6 meq/L. It also gave a PL (24 h) of 153.2 mg/dL, an RALB (24 h) of 2.7 g/dL and a TBIL (24 h) of 0.044 mg/dL. The TC (24 h) was 79.4 mg/dL, the TG (24 h) was 87.8 mg/dL and the TP (24 h) was 5.4 g/dL. The gamma-GTP (24 h) was 1 IU/L.
